ChEMBL document CHEMBL4507305, “Data for DCP probe TP-024” (2021)

How the values were obtained:
[1] = molecular target: Tyrosine-protein kinase Lyn (Homo sapiens) (UniProt P07948); settings: Compound concentration 1000.0 nM
[2] = molecular target: Calcium/calmodulin-dependent protein kinase type II subunit delta (Homo sapiens) (UniProt Q13557); settings: Compound concentration 1000.0 nM
[3] = molecular target: Leukocyte tyrosine kinase receptor (Homo sapiens) (UniProt P29376); settings: Compound concentration 1000.0 nM
[4] = molecular target: MAP kinase-interacting serine/threonine-protein kinase 2 (Homo sapiens) (UniProt Q9HBH9); settings: Compound concentration 1000.0 nM
[5] = test system: Epidermal growth factor receptor (Homo sapiens), P00533 [UNDEFINED MUTATION]; settings: Compound concentration 1000.0 nM
[6] = molecular target: Serine/threonine-protein kinase ULK1 (Homo sapiens) (UniProt O75385); settings: Compound concentration 1000.0 nM
[7] = molecular target: Inhibitor of nuclear factor kappa-B kinase subunit epsilon (Homo sapiens) (UniProt Q14164); settings: Compound concentration 1000.0 nM
[8] = molecular target: Inhibitor of nuclear factor kappa-B kinase subunit beta (Homo sapiens) (UniProt O14920); settings: Compound concentration 1000.0 nM
[9] = molecular target: Tyrosine-protein kinase Fyn (Homo sapiens) (UniProt P06241); settings: Compound concentration 1000.0 nM
[10] = molecular target: Serine/threonine-protein kinase 35 (Homo sapiens) (UniProt Q8TDR2); settings: Compound concentration 1000.0 nM
[11] = molecular target: Serine/threonine-protein kinase PknB (Mycobacterium tuberculosis) (UniProt P9WI81); settings: Compound concentration 1000.0 nM
[12] = molecular target: Eukaryotic translation initiation factor 2-alpha kinase 1 (Homo sapiens) (UniProt Q9BQI3); settings: Compound concentration 1000.0 nM
[13] = molecular target: Calcium/calmodulin-dependent protein kinase type 1B (Homo sapiens) (UniProt Q6P2M8); settings: Compound concentration 1000.0 nM
[14] = molecular target: Tyrosine-protein kinase JAK1 (Homo sapiens) (UniProt P23458); settings: Compound concentration 1000.0 nM
[15] = molecular target: Death-associated protein kinase 2 (Homo sapiens) (UniProt Q9UIK4); settings: Compound concentration 1000.0 nM
[16] = molecular target: Tyrosine-protein kinase receptor Tie-1 (Homo sapiens) (UniProt P35590); settings: Compound concentration 1000.0 nM
[17] = molecular target: Dual specificity mitogen-activated protein kinase kinase 4 (Homo sapiens) (UniProt P45985); settings: Compound concentration 1000.0 nM
[18] = molecular target: Cyclin-dependent kinase 5 (Homo sapiens) (UniProt Q00535); settings: Compound concentration 1000.0 nM
[19] = molecular target: Tyrosine-protein kinase JAK3 (Homo sapiens) (UniProt P52333); settings: Compound concentration 1000.0 nM
[20] = molecular target: Phosphatidylinositol 4,5-bisphosphate 3-kinase catalytic subunit gamma isoform (Homo sapiens) (UniProt P48736); settings: Compound concentration 1000.0 nM
[21] = molecular target: Myotonin-protein kinase (Homo sapiens) (UniProt Q09013); settings: Compound concentration 1000.0 nM
[22] = molecular target: Inhibitor of nuclear factor kappa-B kinase subunit alpha (Homo sapiens) (UniProt O15111); settings: Compound concentration 1000.0 nM
[23] = molecular target: Homeodomain-interacting protein kinase 1 (Homo sapiens) (UniProt Q86Z02); settings: Compound concentration 1000.0 nM
[24] = molecular target: Aurora kinase A (Homo sapiens) (UniProt O14965); settings: Compound concentration 1000.0 nM
Aurora kinase A (Homo sapiens), sequence (O14965 whole entry): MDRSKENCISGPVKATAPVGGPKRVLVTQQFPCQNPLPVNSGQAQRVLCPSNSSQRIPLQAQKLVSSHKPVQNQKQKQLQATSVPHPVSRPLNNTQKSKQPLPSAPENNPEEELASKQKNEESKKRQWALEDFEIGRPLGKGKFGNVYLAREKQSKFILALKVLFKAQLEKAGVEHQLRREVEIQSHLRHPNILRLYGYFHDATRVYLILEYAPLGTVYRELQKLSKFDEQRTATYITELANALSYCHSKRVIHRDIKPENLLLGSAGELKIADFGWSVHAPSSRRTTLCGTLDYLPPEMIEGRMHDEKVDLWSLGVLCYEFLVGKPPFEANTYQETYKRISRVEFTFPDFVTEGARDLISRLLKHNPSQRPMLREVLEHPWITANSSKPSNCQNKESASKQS

[25] = molecular target: Dual serine/threonine and tyrosine protein kinase (Homo sapiens) (UniProt Q6XUX3); settings: Compound concentration 1000.0 nM
[26] = molecular target: Testis-specific serine/threonine-protein kinase 3 (Homo sapiens) (UniProt Q96PN8); settings: Compound concentration 1000.0 nM
[27] = molecular target: Sigma non-opioid intracellular receptor 1 (Homo sapiens) (UniProt Q99720); settings: Compound concentration 10.0 uM
[28] = molecular target: MAP kinase-activated protein kinase 2 (Homo sapiens) (UniProt P49137); settings: Compound concentration 1000.0 nM
[29] = molecular target: Proto-oncogene tyrosine-protein kinase Src (Homo sapiens) (UniProt P12931); settings: Compound concentration 1000.0 nM
[30] = molecular target: Mitogen-activated protein kinase 6 (Homo sapiens) (UniProt Q16659); settings: Compound concentration 1000.0 nM
[31] = molecular target: Receptor-interacting serine/threonine-protein kinase 2 (Homo sapiens) (UniProt O43353); settings: Compound concentration 1000.0 nM
[32] = molecular target: Protein-tyrosine kinase 2-beta (Homo sapiens) (UniProt Q14289); settings: Compound concentration 1000.0 nM
[33] = molecular target: Mitogen-activated protein kinase 9 (Homo sapiens) (UniProt P45984); settings: Compound concentration 1000.0 nM
[34] = molecular target: Ribosomal protein S6 kinase alpha-6 (Homo sapiens) (UniProt Q9UK32); settings: Compound concentration 1000.0 nM
[35] = molecular target: Mitogen-activated protein kinase kinase kinase 19 (Homo sapiens) (UniProt Q56UN5); settings: Compound concentration 1000.0 nM
[36] = molecular target: Alpha-2A adrenergic receptor (Homo sapiens) (UniProt P08913); settings: Compound concentration 10.0 uM
[37] = molecular target: Serine/threonine-protein kinase PAK 4 (Homo sapiens) (UniProt O96013); settings: Compound concentration 1000.0 nM
[38] = molecular target: STE20-like serine/threonine-protein kinase (Homo sapiens) (UniProt Q9H2G2); settings: Compound concentration 1000.0 nM
STE20-like serine/threonine-protein kinase (Homo sapiens), sequence (Q9H2G2 whole entry, looked up): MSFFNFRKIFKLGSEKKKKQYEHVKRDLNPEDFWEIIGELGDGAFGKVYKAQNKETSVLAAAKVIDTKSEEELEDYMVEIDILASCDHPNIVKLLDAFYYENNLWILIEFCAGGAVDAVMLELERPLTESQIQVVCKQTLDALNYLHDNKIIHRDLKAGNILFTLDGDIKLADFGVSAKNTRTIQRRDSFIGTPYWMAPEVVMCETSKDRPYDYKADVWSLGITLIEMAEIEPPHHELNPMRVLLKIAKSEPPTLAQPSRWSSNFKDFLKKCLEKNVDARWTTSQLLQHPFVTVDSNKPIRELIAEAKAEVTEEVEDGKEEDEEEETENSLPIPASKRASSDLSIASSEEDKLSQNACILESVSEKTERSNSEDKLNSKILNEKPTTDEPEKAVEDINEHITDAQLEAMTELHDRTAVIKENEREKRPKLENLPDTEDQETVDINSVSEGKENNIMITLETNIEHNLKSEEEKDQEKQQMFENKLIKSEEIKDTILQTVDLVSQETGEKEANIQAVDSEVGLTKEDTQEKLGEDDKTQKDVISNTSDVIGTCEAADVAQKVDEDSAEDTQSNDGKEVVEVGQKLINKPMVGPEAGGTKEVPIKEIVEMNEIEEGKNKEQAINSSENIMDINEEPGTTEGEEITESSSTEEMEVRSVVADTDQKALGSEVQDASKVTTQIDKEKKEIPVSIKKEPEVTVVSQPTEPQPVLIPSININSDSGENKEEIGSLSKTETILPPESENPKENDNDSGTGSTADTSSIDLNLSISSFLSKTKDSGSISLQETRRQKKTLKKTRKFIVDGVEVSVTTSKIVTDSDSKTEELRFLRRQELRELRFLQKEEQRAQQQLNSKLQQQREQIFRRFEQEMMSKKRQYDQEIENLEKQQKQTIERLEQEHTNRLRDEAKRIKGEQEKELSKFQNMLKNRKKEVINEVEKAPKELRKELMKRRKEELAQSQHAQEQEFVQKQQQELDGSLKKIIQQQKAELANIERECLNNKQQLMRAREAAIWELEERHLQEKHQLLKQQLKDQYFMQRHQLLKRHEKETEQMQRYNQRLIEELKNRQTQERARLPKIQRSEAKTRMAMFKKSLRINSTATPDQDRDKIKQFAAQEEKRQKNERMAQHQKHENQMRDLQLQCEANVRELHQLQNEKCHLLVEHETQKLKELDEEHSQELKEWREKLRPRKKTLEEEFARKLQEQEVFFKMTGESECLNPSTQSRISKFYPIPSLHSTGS

[39] = molecular target: Myosin-IIIb (Homo sapiens) (UniProt Q8WXR4); settings: Compound concentration 1000.0 nM
[40] = molecular target: Phosphatidylinositol 4,5-bisphosphate 3-kinase catalytic subunit beta isoform (Homo sapiens) (UniProt P42338); settings: Compound concentration 1000.0 nM
Phosphatidylinositol 4,5-bisphosphate 3-kinase catalytic subunit beta isoform (Homo sapiens), sequence (P42338 whole entry, looked up, canonical isoform): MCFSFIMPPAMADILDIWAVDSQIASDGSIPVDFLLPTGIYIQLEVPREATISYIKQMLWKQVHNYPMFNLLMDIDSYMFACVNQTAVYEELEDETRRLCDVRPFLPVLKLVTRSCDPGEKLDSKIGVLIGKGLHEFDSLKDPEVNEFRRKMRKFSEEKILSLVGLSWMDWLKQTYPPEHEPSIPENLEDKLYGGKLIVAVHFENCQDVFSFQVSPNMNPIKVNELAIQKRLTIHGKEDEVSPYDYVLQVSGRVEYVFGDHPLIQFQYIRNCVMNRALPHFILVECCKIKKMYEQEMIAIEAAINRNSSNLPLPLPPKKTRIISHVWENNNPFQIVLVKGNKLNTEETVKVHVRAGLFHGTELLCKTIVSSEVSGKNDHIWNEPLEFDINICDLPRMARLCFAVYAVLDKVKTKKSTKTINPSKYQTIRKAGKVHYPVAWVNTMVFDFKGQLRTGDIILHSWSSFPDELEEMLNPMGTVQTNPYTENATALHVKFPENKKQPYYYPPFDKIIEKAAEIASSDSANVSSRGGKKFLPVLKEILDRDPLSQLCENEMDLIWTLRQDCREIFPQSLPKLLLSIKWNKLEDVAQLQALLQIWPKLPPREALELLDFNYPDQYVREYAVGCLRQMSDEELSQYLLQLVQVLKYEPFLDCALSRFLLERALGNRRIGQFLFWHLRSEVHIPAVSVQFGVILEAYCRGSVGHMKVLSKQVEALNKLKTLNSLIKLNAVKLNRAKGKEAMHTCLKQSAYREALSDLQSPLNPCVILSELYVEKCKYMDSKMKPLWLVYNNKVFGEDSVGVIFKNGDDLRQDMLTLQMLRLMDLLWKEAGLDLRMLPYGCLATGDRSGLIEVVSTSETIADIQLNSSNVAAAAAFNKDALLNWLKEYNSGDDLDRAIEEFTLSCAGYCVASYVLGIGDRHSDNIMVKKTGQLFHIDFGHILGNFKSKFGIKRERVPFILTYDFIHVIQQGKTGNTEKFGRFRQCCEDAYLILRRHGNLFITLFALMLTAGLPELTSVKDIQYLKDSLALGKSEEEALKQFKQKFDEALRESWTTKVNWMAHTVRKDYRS

[41] = test system: Mast/stem cell growth factor receptor Kit (Homo sapiens), P10721 [L576P]; settings: Compound concentration 1000.0 nM
Mast/stem cell growth factor receptor Kit (Homo sapiens), P10721 [L576P], sequence (P10721 whole entry L576P): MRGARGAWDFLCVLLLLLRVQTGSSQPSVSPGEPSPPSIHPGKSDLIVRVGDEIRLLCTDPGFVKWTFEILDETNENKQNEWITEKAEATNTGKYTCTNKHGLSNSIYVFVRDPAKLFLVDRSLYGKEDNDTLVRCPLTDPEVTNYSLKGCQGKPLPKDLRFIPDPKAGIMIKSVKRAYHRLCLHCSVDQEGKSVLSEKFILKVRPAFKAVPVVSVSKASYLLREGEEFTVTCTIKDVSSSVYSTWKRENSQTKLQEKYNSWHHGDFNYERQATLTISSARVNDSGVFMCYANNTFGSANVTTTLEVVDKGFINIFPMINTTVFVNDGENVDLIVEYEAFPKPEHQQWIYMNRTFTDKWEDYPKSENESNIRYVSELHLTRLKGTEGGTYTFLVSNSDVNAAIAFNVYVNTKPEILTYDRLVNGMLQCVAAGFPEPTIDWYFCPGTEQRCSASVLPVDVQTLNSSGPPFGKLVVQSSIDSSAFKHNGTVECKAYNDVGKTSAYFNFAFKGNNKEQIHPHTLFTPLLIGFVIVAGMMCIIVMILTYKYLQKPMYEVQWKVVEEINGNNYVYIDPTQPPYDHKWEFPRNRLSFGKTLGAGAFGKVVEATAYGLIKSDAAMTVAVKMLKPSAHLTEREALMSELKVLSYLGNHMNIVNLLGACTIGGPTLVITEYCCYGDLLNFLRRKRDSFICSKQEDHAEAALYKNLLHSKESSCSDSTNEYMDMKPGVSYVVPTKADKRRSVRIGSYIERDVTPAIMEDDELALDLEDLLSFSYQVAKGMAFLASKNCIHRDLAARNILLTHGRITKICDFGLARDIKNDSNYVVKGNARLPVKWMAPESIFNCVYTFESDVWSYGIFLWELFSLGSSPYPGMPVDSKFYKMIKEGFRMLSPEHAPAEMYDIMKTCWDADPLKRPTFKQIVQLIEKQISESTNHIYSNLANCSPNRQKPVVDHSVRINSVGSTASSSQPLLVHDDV

[42] = molecular target: 5'-AMP-activated protein kinase catalytic subunit alpha-1 (Homo sapiens) (UniProt Q13131); settings: Compound concentration 1000.0 nM
5'-AMP-activated protein kinase catalytic subunit alpha-1 (Homo sapiens), sequence (Q13131 whole entry, looked up): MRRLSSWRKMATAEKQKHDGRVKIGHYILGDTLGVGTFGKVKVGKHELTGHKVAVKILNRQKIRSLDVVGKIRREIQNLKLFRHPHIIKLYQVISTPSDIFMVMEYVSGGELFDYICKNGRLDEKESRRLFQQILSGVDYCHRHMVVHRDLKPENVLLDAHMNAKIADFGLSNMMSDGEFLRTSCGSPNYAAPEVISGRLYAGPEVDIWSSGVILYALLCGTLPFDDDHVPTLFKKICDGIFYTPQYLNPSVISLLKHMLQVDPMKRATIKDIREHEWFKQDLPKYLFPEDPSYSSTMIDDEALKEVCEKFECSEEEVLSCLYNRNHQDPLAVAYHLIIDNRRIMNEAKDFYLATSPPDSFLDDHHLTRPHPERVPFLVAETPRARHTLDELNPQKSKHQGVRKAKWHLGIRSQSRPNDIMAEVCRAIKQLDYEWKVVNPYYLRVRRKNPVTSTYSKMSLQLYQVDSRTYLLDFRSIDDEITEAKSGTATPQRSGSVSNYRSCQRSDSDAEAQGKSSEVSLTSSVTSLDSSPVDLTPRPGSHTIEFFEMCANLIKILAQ

[43] = molecular target: Ribosomal protein S6 kinase alpha-5 (Homo sapiens) (UniProt O75582); settings: Compound concentration 1000.0 nM
[44] = molecular target: Phosphatidylinositol 4-phosphate 5-kinase type-1 gamma (Homo sapiens) (UniProt O60331); settings: Compound concentration 1000.0 nM
Phosphatidylinositol 4-phosphate 5-kinase type-1 gamma (Homo sapiens), sequence (O60331 whole entry): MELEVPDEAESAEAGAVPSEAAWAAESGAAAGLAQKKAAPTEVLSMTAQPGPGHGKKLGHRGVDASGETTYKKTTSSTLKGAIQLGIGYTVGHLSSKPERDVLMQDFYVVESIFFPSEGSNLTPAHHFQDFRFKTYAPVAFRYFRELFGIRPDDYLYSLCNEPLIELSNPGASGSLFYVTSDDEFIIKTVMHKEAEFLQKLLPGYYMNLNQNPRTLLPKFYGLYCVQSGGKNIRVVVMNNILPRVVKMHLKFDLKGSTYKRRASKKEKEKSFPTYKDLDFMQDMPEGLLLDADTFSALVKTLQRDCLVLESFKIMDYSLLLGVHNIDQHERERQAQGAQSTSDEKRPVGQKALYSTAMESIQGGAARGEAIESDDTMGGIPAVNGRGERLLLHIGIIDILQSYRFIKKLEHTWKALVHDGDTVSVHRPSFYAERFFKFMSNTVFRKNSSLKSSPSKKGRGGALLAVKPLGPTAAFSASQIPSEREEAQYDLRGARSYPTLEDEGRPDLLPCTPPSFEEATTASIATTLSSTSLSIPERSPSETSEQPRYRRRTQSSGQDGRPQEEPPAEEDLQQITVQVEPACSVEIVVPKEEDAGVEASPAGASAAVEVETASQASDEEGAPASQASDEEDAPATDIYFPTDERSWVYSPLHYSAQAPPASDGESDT

[45] = test system: Tyrosine-protein kinase ABL1 (Homo sapiens), P00519 [Y253F]; settings: Compound concentration 1000.0 nM

Structure (SMILES): Cc1nc(Cc2cccc(C(F)(F)F)c2)sc1-c1ccc(C(N)=O)nc1 [TP-024n]
- residual activity [1]: 95%
- residual activity [2]: 100%
- residual activity [3]: 100%
- residual activity [4]: 100%
- residual activity [5]: 100%
- residual activity [6]: 100%
- residual activity [7]: 76%
- residual activity [8]: 72%
- residual activity [9]: 100%
- residual activity [10]: 100%
- residual activity [11]: 99%
- residual activity [12]: 100%
- residual activity [13]: 100%
- residual activity [14]: 86%
- residual activity [15]: 89%
- residual activity [16]: 28%
- residual activity [17]: 100%
- residual activity [18]: 100%
- residual activity [19]: 100%
- residual activity [20]: 78%
- residual activity [21]: 100%
- residual activity [22]: 100%
- residual activity [23]: 92%
- residual activity [24]: 100%
- residual activity [25]: 78%
- residual activity [26]: 100%
- inhibition [27]: 11.7%
- residual activity [28]: 100%
- residual activity [29]: 80%
- residual activity [30]: 100%
- residual activity [31]: 100%
- residual activity [32]: 100%
- residual activity [33]: 100%
- residual activity [34]: 100%
- residual activity [35]: 100%
- inhibition [36]: 4.44%
- residual activity [37]: 96%
- residual activity [38]: 100%
- residual activity [39]: 100%
- residual activity [40]: 83%
- residual activity [41]: 89%
- residual activity [42]: 100%
- residual activity [43]: 100%
- residual activity [44]: 84%
- residual activity [45]: 88%

Structure (SMILES): Cc1cc(-n2nc(Cc3cc(F)cc(C(F)(F)F)c3)nc2C)ccc1C(N)=O [TP-024]
- residual activity [1]: 100%
- residual activity [2]: 100%
- residual activity [3]: 100%
- residual activity [4]: 100%
- residual activity [5]: 100%
- residual activity [6]: 100%
- residual activity [7]: 82%
- residual activity [8]: 92%
- residual activity [9]: 100%
- residual activity [10]: 100%
- residual activity [11]: 78%
- residual activity [12]: 100%
- residual activity [13]: 100%
- residual activity [14]: 100%
- residual activity [15]: 95%
- residual activity [16]: 100%
- residual activity [17]: 100%
- residual activity [18]: 100%
- residual activity [19]: 100%
- residual activity [20]: 79%
- residual activity [21]: 100%
- residual activity [22]: 100%
- residual activity [23]: 92%
- residual activity [24]: 99%
- residual activity [25]: 97%
- residual activity [26]: 55%
- inhibition [27]: 5.85%
- residual activity [28]: 100%
- residual activity [29]: 95%
- residual activity [30]: 100%
- residual activity [31]: 100%
- residual activity [32]: 100%
- residual activity [33]: 81%
- residual activity [34]: 100%
- residual activity [35]: 98%
- inhibition [36]: 8.93%
- residual activity [37]: 100%
- residual activity [38]: 92%
- residual activity [39]: 100%
- residual activity [40]: 85%
- residual activity [41]: 52%
- residual activity [42]: 100%
- residual activity [43]: 97%
- residual activity [44]: 66%
- residual activity [45]: 90%
